The results in this text go back to patent US20130289071A1, “TETRAZOLYL-TETRAHYDROPYRIDINE COMPOUNDS FOR INFLAMMATION AND IMMUNE-RELATED USES” (Synta Pharmaceuticals Corp., priority 2010, published 2013).

For the experiment, the system named is IL-2 production. Put plainly: Inhibition of IL-2 production (Jurkat/PHA/1% FBS, ELISA). It counts as cell-based. Particulars: Jurkat cells, PHA 2.5 μg/mL. As to the method:
JurkaT-cells were placed in a 96 well plate (0.5 million cells per well in 1% FBS medium), and then a test compound of this invention was added at different concentrations. After 10 minutes, the cells were activated with PHA (final concentration 2.5 μg/mL) and incubated for 20 hours at 37° C. under 5% CO2. The final volume was 200 μL. Following incubation, the cells were centrifuged, and the supernatants collected and stored at −70° C. prior to assaying for IL-2 production. A commercial ELISA kit (IL-2 Eli-pair, Diaclone Research, Besancon, France) was used to detect production of IL-2, from which dose response curves were obtained. The IC50 value was calculated as the concentration at which 50% of maximum IL-2 production after stimulation was inhibited versus a non-stimulation control.
On the technique in general: An ELISA detects its analyte on a solid surface through an enzyme-linked reagent.

SMILES strings stand for the structures.

For the setting “Homo sapiens, Jurkat, 20 h”, `[2H]C([2H])([2H])n1nnc(N2CCC(C)=C(c3ccc(NC(=O)c4cccc(F)c4F)cc3)C2)n1` [Compound 1] returned an IC50 of 10 nM. The compound `CC1=C(c2ccc(NC(=O)c3cccc(F)c3F)cc2)CN(c2nnn(CF)n2)CC1` [Compound 2] returned an IC50 (Homo sapiens, Jurkat, 20 h) of 11 nM. The IC50 values of the last two compounds are within 1.5-fold of each other.

Regarding `CCC1=C(c2ccc(NC(=O)c3cccc(F)c3F)cc2)CN(c2nnn(CF)n2)CC1` [Compound 3], under “Homo sapiens, Jurkat, 20 h”, the IC50 was found to be 12 nM. Regarding `Cn1nnc(N2CCC(Cl)=C(c3ccc(NC(=O)c4c(F)cccc4F)nc3)C2)n1` [Compound 4], for the setting “Homo sapiens, Jurkat, 20 h”, the midpoint of inhibition, the IC50, lay at 12 nM.

On to `CC1=C(c2cnc(NC(=O)c3c(F)cccc3Cl)cn2)CN(c2nnn(C)n2)CC1` [Compound 5], for which, under “Homo sapiens, Jurkat, 20 h”, 13 nM corresponded to half-maximal inhibition (IC50). With `CC1=C(c2ccc(NC(=O)c3cncc(F)c3C)cc2)CN(c2nnn(C)n2)CC1` [Compound 6], 13 nM corresponded to half-maximal inhibition (Homo sapiens, Jurkat, 20 h) (IC50). Still for that read-out and setting: as for `CCC1=C(c2ccc(NC(=O)c3cccc(F)c3F)cc2)CN(c2nnn(C)n2)CC1` [Compound 7], the figure is 14 nM; as for `CC1=C(c2ccc(NC(=O)c3c(F)cccc3F)nc2)CN(c2nnn(C)n2)CC1` [Compound 8], 15 nM; as for `CC1=C(c2ccc(NC(=O)c3c(F)cccc3Cl)nc2)CN(c2nnn(C)n2)CC1` [Compound 13], 17 nM. For the setting “20 hours”, `CC1=C(c2ccc(NC(=O)c3cccc(F)c3F)cc2)CN(c2nnn(C)n2)CC1` [Compound 19] registered an IC50 of 22 nM. `CC1=C(c2ccc(NC(=O)c3cccc(F)c3F)cc2)CN(c2nnn(C(F)F)n2)CC1` [Compound 21] displayed an IC50 (Homo sapiens, Jurkat, 20 h) of 26 nM.

Take `CCC1=C(c2ccc(NC(=O)c3cccc(F)c3F)cc2)CN(c2nnn(CC)n2)CC1` [Compound 24]: the IC50 (Homo sapiens, Jurkat, 20 h) came to 33 nM. `Cn1nnc(N2CCC(Cl)=C(c3ccc(NC(=O)c4ccncc4F)cc3)C2)n1` [Compound 28] registered an IC50 (Homo sapiens, Jurkat, 20 h) of 39 nM. The same measure, in the same setting: under `CC1=C(c2cnc(NC(=O)c3c(F)cccc3F)cn2)CN(c2nnn(C)n2)CC1` [Compound 32] stands 46 nM. On to `CCn1nnc(N2CCC(C)=C(c3ccc(NC(=O)c4cccc(F)c4F)cc3)C2)n1` [Compound 34], for which, under “Homo sapiens, Jurkat, 20 h”, the IC50 was 47 nM.

Consider `CC(C)C1=C(c2cnc(NC(=O)c3c(F)cccc3F)cn2)CN(c2nnn(C)n2)CC1` [Compound 35], for which it took 49 nM to reach half-maximal inhibition (Homo sapiens, Jurkat, 20 h) (IC50). For the compound `CC1=C(c2ccc(NC(=O)c3ccccc3F)nc2)CN(c2nnn(C)n2)CC1` [Compound 42], the IC50 (Homo sapiens, Jurkat, 20 h) is 55 nM. Still for that read-out and setting: as for `Cn1nnc(N2CCC(Cl)=C(c3ccc(NC(=O)c4ccncc4Cl)cc3)C2)n1` [Compound 43], the figure is 56 nM; as for `CC1=C(c2ccc(NC(=O)c3c(F)cccc3F)cc2)CN(c2nnn(C(C)C)n2)CC1` [Compound 44], 56 nM; as for `COc1cc(C)c(C(=O)Nc2ccc(C3=C(C)CCN(c4nnn(C)n4)C3)cc2)cn1` [Compound 48], 62 nM. Same read-out and setting: as for `CCC1=C(c2cnc(NC(=O)c3ccc(F)cc3F)cn2)CN(c2nnn(C)n2)CC1` [Compound 49], the figure is 67 nM; as for `CC1=C(c2cnc(C(=O)Nc3c(F)cccc3F)cn2)CN(c2nnn(C)n2)CC1` [Compound 50], 74 nM.

Consider `CC1=C(c2ccc(NC(=O)c3ccccc3Cl)nc2)CN(c2nnn(C)n2)CC1` [Compound 51], for which half-maximal inhibition (Homo sapiens, Jurkat, 20 h) (IC50) was put at 75 nM. Same read-out and setting: under `CCCn1nnc(N2CCC(C)=C(c3ccc(NC(=O)c4cccc(F)c4F)cc3)C2)n1` [Compound 52] stands 77 nM; under `CC1=C(c2ccc(NC(=O)c3cc(F)ccc3Cl)cc2)CN(c2nnn(C)n2)CC1` [Compound 53], 85 nM; under `CCn1nnc(N2CCC(C)=C(c3ccc(NC(=O)c4cnccc4C)cc3)C2)n1` [Compound 55], 96 nM. Still for that read-out and setting: as for `CC1=C(c2ccc(NC(=O)c3c(Cl)cncc3Cl)cc2)CN(c2nnn(C)n2)CC1` [Compound 57], the figure is 100 nM; as for `CC1=C(c2cnc(NC(=O)c3ccc(F)cc3F)cn2)CN(c2nnn(C)n2)CC1` [Compound 58], 104 nM. On the same count and under the same terms, as for `CCc1c(F)cncc1C(=O)Nc1ccc(C2=C(C)CCN(c3nnn(CC)n3)C2)cc1` [Compound 59], the figure is 105 nM; as for `CC1=C(c2ccc(NC(=O)c3cccnc3C)cc2)CN(c2nnn(C)n2)CC1` [Compound 60], 114 nM; as for `CC1=C(c2ccc(NC(=O)c3cccc(Cl)c3Cl)cc2)CN(c2nnn(C)n2)CC1` [Compound 62], 124 nM. `CC1=C(c2ccc(NC(=O)c3ncncc3C)cc2)CN(c2nnn(C)n2)CC1` [Compound 63] returned an IC50 (Homo sapiens, Jurkat, 20 h) of 124 nM. Same read-out and setting: under `CC(C)C1=C(c2ccc(NC(=O)c3ccc(F)cc3F)nc2)CN(c2nnn(C)n2)CC1` [Compound 64] stands 126 nM; under `CC1=C(c2ccc(C(=O)Nc3c(F)cccc3F)cn2)CN(c2nnn(C)n2)CC1` [Compound 65], 127 nM; under `CC1=C(c2cnc(NC(=O)c3cncc(F)c3C)cn2)CN(c2nnn(C)n2)CC1` [Compound 66], 147 nM. Same read-out and setting: as for `Cc1ccncc1C(=O)Nc1ccc(C2=C(Cl)CCN(c3nnn(C)n3)C2)cn1` [Compound 67], the figure is 150 nM; as for `COc1cccc(F)c1C(=O)Nc1ccc(C2=C(C)CCN(c3nnn(C)n3)C2)cc1` [Compound 68], 163 nM; as for `CC1=C(c2ccc(NC(=O)c3cnc(C)cc3C)cc2)CN(c2nnn(C)n2)CC1` [Compound 69], 219 nM. `CCn1nnc(N2CCC(C)=C(c3ccc(NC(=O)c4cc(C)ncc4C)cc3)C2)n1` [Compound 70] returned an IC50 (Homo sapiens, Jurkat, 20 h) of 289 nM. Same read-out and setting: as for `CC1=C(c2ccc(NC(=O)c3cccc(F)c3F)cc2)CN(c2nnn(CC(C)C)n2)CC1` [Compound 71], the figure is 312 nM; as for `CC1=C(c2cnc(NC(=O)c3cnccc3C)cn2)CN(c2nnn(C)n2)CC1` [Compound 72], 335 nM; as for `CC1=C(c2cnc(NC(=O)c3ccncc3Cl)cn2)CN(c2nnn(C)n2)CC1` [Compound 73], 423 nM. Still for that read-out and setting: as for `CCn1nnc(N2CCC(C)=C(c3ccc(NC(=O)c4cncnc4C)cc3)C2)n1` [Compound 74], the figure is 698 nM; as for `CC1=C(c2cnc(NC(=O)c3cc(F)cc(F)c3)cn2)CN(c2nnn(C)n2)CC1` [Compound 75], 803 nM. As to `COc1ccc(F)cc1C(=O)Nc1ccc(C2=C(C)CCN(c3nnn(C)n3)C2)cc1` [Compound 76], under “Homo sapiens, Jurkat, 20 h”, the midpoint of inhibition, the IC50, lay at 1000 nM. This IC50 and that of the compound before are within 1.5-fold of each other.

Broadly, the IC50 is the concentration needed to halve the response being measured.
